Results published in patent publication US6914045B2, “Glycopeptide antibiotics” (Wyeth Holdings Corporation, priority 2001, dated 2005).
≈ marks a conversion by molar mass, not a printed value.

Key:
Escherichia coli = assay: in vitro antibacterial evaluation, MIC by broth dilution; type: cell-based; conditions: 18 hours at 35° C.
[1] = anatomic pathology (histopathology of heart and kidney) in mice; type: in vivo; conditions: CD-1 mice, 20 mg/kg intravenously daily for 9 days, necropsy day 10, microscopic histopathology
Method: Samples of tissues from necropsied mice were formalin-fixed, paraffin-embedded, sectioned, stained with hematoxylin and eosin, and examined microscopically. Histopathologic findings were recorded. These findings were subjectively graded on a scale corresponding to slight, mild, moderate, marked and severe as compared to untreated controls.

Staphylococcus sp. = assay: in vitro antibacterial evaluation, MIC by broth dilution; type: cell-based; conditions: broth dilution, 18 hours at 35° C.
How it was run: (§1)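 Step 1: dilute antibiotic across 64-0.06 μg/mL in Muller-Hinton II […]. Step 2: inoculate at 5×10^5 CFU/mL.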

Streptococcus sp. = assay: as above; type: cell-based; conditions: broth dilution, 18 hours at 35° C.
How it was run: as §1

Enterococcus sp. = assay: as above; type: cell-based; conditions: broth dilution, 18 hours at 35° C.
How it was run: as §1

[2] = tested on: Staphylococcus aureus-SMITH (GC 4543); assay: acute lethal infection in mice; type: in vivo; conditions: acute lethal infection, female CD-1 mice, intraperitoneal challenge, intravenous 30 min. after infection, 7 day survival
How it was run: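 Mice (female CD-1, 20+/−2 gm) receive bacteria ip in broth or hog gastric mucin, then test agent iv after 30 min. Median effective dose is calculated from 7 day survival pooled across 3 tests.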

SMILES: COc1ccc2cc(COC3C(CO)OC(OC4C(CO)OC(Oc5ccc(CC6NC(=O)C(C(C)c7ccccc7)NC(=O)CNC(=O)C(CO)NC(=O)C(C(O)C7CNC(=N)N7C7OC(CO)C(O)C(O)C7O)NC(=O)C(C(O)C7CNC(=N)N7)NC6=O)cc5)C(O)C4O)C(O)C3O)ccc2c1 (stereo not drawn) [Example 230a, Cyclo[glycyl-β-methylphenylalanyl-O-[4-O-[4-O-[(6-methoxy-2-naphthyl)methyl]hexopyranosyl]hexopyranosyl]tyrosyl-3-(2-iminoimidazolidin-4-yl)seryl-3-(3-hexopyranosyl-2-iminoimidazolidin-4-yl)serylseryl]]
- MIC Escherichia coli (ATCC 25922) (Escherichia coli): 32 µg/mL (≈ 21.8 µM)
- MIC Escherichia coli (GC 4559) (Escherichia coli): 32 µg/mL (≈ 21.8 µM)
- MIC Escherichia coli (GC 4560) (Escherichia coli): 0.25 to 1 µg/mL
- Anatomical Pathology (Day 10), Heart [1]: 0
- Anatomical Pathology (Day 10), Kidney [1]: +
- MIC Coagulase Negative Staphylococcus (GC 4547) (Staphylococcus sp.): 0.5 to 2 µg/mL
- MIC Coagulase Negative Staphylococcus (GC 4548) (Staphylococcus sp.): 0.12 to 0.5 µg/mL
- MIC Coagulase Negative Staphylococcus (GC 4549) (Staphylococcus sp.): 0.12 to 0.5 µg/mL
- MIC Coagulase Negative Staphylococcus (GC 4551) (Staphylococcus sp.): 0.25 to 1 µg/mL
- MIC Coagulase Negative Staphylococcus (GC 6257) (Staphylococcus sp.): 0.25 to 0.5 µg/mL
- MIC Staphylococcus aureus (ATCC 29213) (Staphylococcus sp.): 1 to 2 µg/mL
- MIC Staphylococcus aureus (GC 1131) (Staphylococcus sp.): 0.5 to 2 µg/mL
- MIC Staphylococcus aureus (GC 3051) (Staphylococcus sp.): 1 to 2 µg/mL
- MIC Staphylococcus aureus (GC 3053) (Staphylococcus sp.): 1 to 2 µg/mL
- MIC Staphylococcus aureus (GC 4541) (Staphylococcus sp.): 0.5 to 2 µg/mL
- MIC Staphylococcus aureus (GC 4542) (Staphylococcus sp.): 0.25 to 2 µg/mL
- MIC Staphylococcus aureus (GC 4544) (Staphylococcus sp.): 1 to 2 µg/mL
- MIC Staphylococcus aureus (GC 4545) (Staphylococcus sp.): 0.5 to 1 µg/mL
- MIC Staphylococcus aureus-SMITH (GC 4543) (Staphylococcus sp.): 0.5 to 2 µg/mL
- MIC Staphylococcus haemolyticus (GC 4546) (Staphylococcus sp.): 0.25 to 1 µg/mL
- MIC Staphylococcus aureus (ATCC 29213) (Staphylococcus sp.; strain ATCC 29213): 1 to 2 µg/mL
- MIC Staphylococcus aureus (GC 1131) (Staphylococcus sp.; strain GC 1131): 0.5 to 2 µg/mL
- MIC Staphylococcus aureus (GC 3051) (Staphylococcus sp.; strain GC 3051): 1 to 2 µg/mL
- MIC Staphylococcus aureus (GC 3053) (Staphylococcus sp.; strain GC 3053): 1 to 2 µg/mL
- MIC Staphylococcus aureus (GC 4541) (Staphylococcus sp.; strain GC 4541): 0.5 to 2 µg/mL
- MIC Staphylococcus aureus (GC 4542) (Staphylococcus sp.; strain GC 4542): 0.25 to 2 µg/mL
- MIC Staphylococcus aureus-SMITH (GC 4543) (Staphylococcus sp.; strain GC 4543): 0.5 to 2 µg/mL
- MIC Staphylococcus aureus (GC 4544) (Staphylococcus sp.; strain GC 4544): 1 to 2 µg/mL
- MIC Staphylococcus aureus (GC 4545) (Staphylococcus sp.; strain GC 4545): 0.5 to 1 µg/mL
- MIC Staphylococcus haemolyticus (GC 4546) (Staphylococcus sp.; strain GC 4546): 0.25 to 1 µg/mL
- MIC Coagulase Negative Staphylococcus (GC 4547) (Staphylococcus sp.; strain GC 4547): 0.5 to 2 µg/mL
- MIC Coagulase Negative Staphylococcus (GC 4548) (Staphylococcus sp.; strain GC 4548): 0.12 to 0.5 µg/mL
- MIC Coagulase Negative Staphylococcus (GC 4549) (Staphylococcus sp.; strain GC 4549): 0.12 to 0.5 µg/mL
- MIC Coagulase Negative Staphylococcus (GC 4551) (Staphylococcus sp.; strain GC 4551): 0.25 to 1 µg/mL
- MIC Coagulase Negative Staphylococcus (GC 6257) (Staphylococcus sp.; strain GC 6257): 0.25 to 0.5 µg/mL
- MIC Streptococcus agalactiae (GC 4564) (Streptococcus sp.): <0.06 to 0.12 µg/mL
- MIC Streptococcus pneumoniae (ATCC 6301) (Streptococcus sp.): <0.06 µg/mL
- MIC Streptococcus pneumoniae (GC 1894) (Streptococcus sp.): <0.06 µg/mL
- MIC Streptococcus pneumoniae (GC 4565) (Streptococcus sp.): <0.06 µg/mL
- MIC Streptococcus pyogenes (GC 4563) (Streptococcus sp.): <0.06 to 0.25 µg/mL
- MIC Streptococcus pneumoniae (ATCC 6301) (Streptococcus sp.; inoculum 5×10^5 CFU/mL, strain ATCC 6301): <0.06 µg/mL
- MIC Streptococcus pneumoniae (GC 1894) (Streptococcus sp.; inoculum 5×10^5 CFU/mL, strain GC 1894): <0.06 µg/mL
- MIC Streptococcus pyogenes (GC 4563) (Streptococcus sp.; inoculum 5×10^5 CFU/mL, strain GC 4563): <0.06 to 0.25 µg/mL
- MIC Streptococcus agalactiae (GC 4564) (Streptococcus sp.; inoculum 5×10^5 CFU/mL, strain GC 4564): <0.06 to 0.12 µg/mL
- MIC Streptococcus pneumoniae (GC 4565) (Streptococcus sp.; inoculum 5×10^5 CFU/mL, strain GC 4565): <0.06 µg/mL
- MIC Enterococcus avium (GC 4558) (Enterococcus sp.): 2 to 4 µg/mL
- MIC Enterococcus faecalis (ATCC 29212) (Enterococcus sp.): 2 to 4 µg/mL
- MIC Enterococcus faecalis (GC 2242) (Enterococcus sp.): 2 to 4 µg/mL
- MIC Enterococcus faecalis (GC 2691) (Enterococcus sp.): 2 to 4 µg/mL
- MIC Enterococcus faecalis (GC 3059) (Enterococcus sp.): 2 to 4 µg/mL
- MIC Enterococcus faecalis (GC 4552) (Enterococcus sp.): 2 to 4 µg/mL
- MIC Enterococcus faecalis (GC 4553) (Enterococcus sp.): 2 to 4 µg/mL
- MIC Enterococcus faecalis (GC 4554) (Enterococcus sp.): 2 to 4 µg/mL
- MIC Enterococcus faecalis (GC 6189) (Enterococcus sp.): 1 to 4 µg/mL
- MIC Enterococcus faecium (GC 2243) (Enterococcus sp.): 2 to 4 µg/mL
- MIC Enterococcus faecium (GC 4556) (Enterococcus sp.): 2 to 4 µg/mL
- MIC Enterococcus faecium (GC 4557) (Enterococcus sp.): 1 to 2 µg/mL
- MIC Enterococcus faecalis (ATCC 29212) (Enterococcus sp.; inoculum 5×10^5 CFU/mL, strain ATCC 29212): 2 to 4 µg/mL
- MIC Enterococcus faecalis (GC 2242) (Enterococcus sp.; inoculum 5×10^5 CFU/mL, strain GC 2242): 2 to 4 µg/mL
- MIC Enterococcus faecium (GC 2243) (Enterococcus sp.; inoculum 5×10^5 CFU/mL, strain GC 2243): 2 to 4 µg/mL
- MIC Enterococcus faecalis (GC 2691) (Enterococcus sp.; inoculum 5×10^5 CFU/mL, strain GC 2691): 2 to 4 µg/mL
- MIC Enterococcus faecalis (GC 3059) (Enterococcus sp.; inoculum 5×10^5 CFU/mL, strain GC 3059): 2 to 4 µg/mL
- MIC Enterococcus faecalis (GC 4552) (Enterococcus sp.; inoculum 5×10^5 CFU/mL, strain GC 4552): 2 to 4 µg/mL
- MIC Enterococcus faecalis (GC 4553) (Enterococcus sp.; inoculum 5×10^5 CFU/mL, strain GC 4553): 2 to 4 µg/mL
- MIC Enterococcus faecalis (GC 4554) (Enterococcus sp.; inoculum 5×10^5 CFU/mL, strain GC 4554): 2 to 4 µg/mL
- MIC Enterococcus faecium (GC 4556) (Enterococcus sp.; inoculum 5×10^5 CFU/mL, strain GC 4556): 2 to 4 µg/mL
- MIC Enterococcus faecium (GC 4557) (Enterococcus sp.; inoculum 5×10^5 CFU/mL, strain GC 4557): 1 to 2 µg/mL
- MIC Enterococcus avium (GC 4558) (Enterococcus sp.; inoculum 5×10^5 CFU/mL, strain GC 4558): 2 to 4 µg/mL
- MIC Enterococcus faecalis (GC 6189) (Enterococcus sp.; inoculum 5×10^5 CFU/mL, strain GC 6189): 1 to 4 µg/mL
- median effective dose (ED50), Staphylococcus aureus-SMITH (GC 4543) [2]: 0.06 mg/kg
